Test results taken from PubChem BioAssay AID248 (DTP/NCI, 2004).
Where “and” joins values, the source holds several entries; their conditions need not be identical. Equal values may be shown once. Toxic doses and inconclusive results are not listed. No stated cut-off is given here; in the data, active means T/C of 150% or more; inactive means T/C below 125%.

Test system: L1210 leukemia ip in BDF1 mice, survival T/C
Experiment: NCI In Vivo Anticancer Drug Screen. Data for tumor model L1210 Leukemia (intraperitoneal) in B6D2F1 (BDF1) mice
Settings: endpoint: mean survival time, higher = longer survival
Method in brief: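 Ratio derived from survival: compound-dosed mice over vehicle-dosed mice, all bearing a transplantable tumor.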

[1] = dose: 100.0 mg/kg/injection, schedule: Q04DX002 (ip), vehicle: Klucel (hydroxypropylcellulose) (HPC)
[2] = dose: 200.0 mg/kg/injection, schedule: Q04DX002 (ip), vehicle: Klucel (hydroxypropylcellulose) (HPC)
[3] = dose: 12.5 mg/kg/injection, schedule: Q04DX002 (ip), vehicle: saline with Tween-80
[4] = dose: 25.0 mg/kg/injection, schedule: Q04DX002 (ip), vehicle: saline with Tween-80
[5] = dose: 100.0 mg/kg/injection, schedule: Q04DX002 (ip), vehicle: saline with Tween-80
[6] = dose: 100.0 mg/kg/injection, schedule: Q04DX003 (ip), vehicle: saline with Tween-80
[7] = dose: 400.0 mg/kg/injection, schedule: Q04DX003 (ip), vehicle: saline with Tween-80
[8] = dose: 100.0 mg/kg/injection, schedule: Q04DX003 (ip), vehicle: Klucel (hydroxypropylcellulose) (HPC)
[9] = dose: 200.0 mg/kg/injection, schedule: Q04DX003 (ip), vehicle: Klucel (hydroxypropylcellulose) (HPC)
[10] = dose: 400.0 mg/kg/injection, schedule: Q04DX003 (ip), vehicle: Klucel (hydroxypropylcellulose) (HPC)
[11] = dose: 100.0 mg/kg/injection, schedule: Q01DX001 (ip), vehicle: carboxymethylcellulose (CMC)
[12] = dose: 200.0 mg/kg/injection, schedule: Q01DX001 (ip), vehicle: carboxymethylcellulose (CMC)
[13] = dose: 400.0 mg/kg/injection, schedule: Q01DX001 (ip), vehicle: carboxymethylcellulose (CMC)
[14] = dose: 200.0 mg/kg/injection, schedule: Q04DX003 (ip), vehicle: saline with Tween-80
[15] = dose: 100.0 mg/kg/injection, schedule: Q04DX003 (ip), vehicle: saline
[16] = dose: 200.0 mg/kg/injection, schedule: Q04DX003 (ip), vehicle: saline
[17] = dose: 400.0 mg/kg/injection, schedule: Q04DX003 (ip), vehicle: saline
[18] = dose: 50.0 mg/kg/injection, schedule: Q04DX002 (ip), vehicle: Klucel (hydroxypropylcellulose) (HPC)
[19] = dose: 50.0 mg/kg/injection, schedule: Q01DX001 (ip), vehicle: carboxymethylcellulose (CMC)
[20] = dose: 100.0 mg/kg/injection, schedule: Q01DX001 (ip), vehicle: saline
[21] = dose: 200.0 mg/kg/injection, schedule: Q01DX001 (ip), vehicle: saline
[22] = dose: 400.0 mg/kg/injection, schedule: Q01DX001 (ip), vehicle: saline
[23] = dose: 100.0 mg/kg/injection, schedule: Q01DX009 (ip), vehicle: saline
[24] = dose: 200.0 mg/kg/injection, schedule: Q01DX009 (ip), vehicle: saline

Measured: T/C

CCCCOP(=O)(/C=C/c1ccc([N+](=O)[O-])cc1)OCCCC
inactive: [1] 97 % of control | [2] 93 % of control | dose: 400.0 mg/kg/injection, schedule: Q04DX002 (ip), vehicle: Klucel (hydroxypropylcellulose) (HPC) 108 % of control

C/C=C(/Br)C(=O)O
inactive: [3] 113 % of control | [4] 105 % of control | dose: 50.0 mg/kg/injection, schedule: Q04DX002 (ip), vehicle: saline with Tween-80 98 % of control | [5] 105 % of control

c1ccc(CCN2COc3c(ccc4cccnc34)C2)cc1
inactive: [6] 102 % of control | [7] 90 % of control

O=[N+]([O-])c1ccc(/C=C/C=C\c2ccc(S(=O)(=O)F)cc2Cl)cc1
inactive: [8] 96 % of control | [9] 92 % of control | [10] 96 % of control

CN(C)c1ccc(C=Nc2cccc(O)c2)cc1
inactive: [11] 102 % of control | [12] 88 % of control | [13] 94 % of control

COc1ccc(CC(=O)NCCc2ccc3c(c2)OCO3)cc1OC
inactive: dose: 50.0 mg/kg/injection, schedule: Q01DX009 (ip), vehicle: saline with Tween-80 89 % of control | dose: 100.0 mg/kg/injection, schedule: Q01DX009 (ip), vehicle: saline with Tween-80 91 % of control | [6] 92 % of control | dose: 200.0 mg/kg/injection, schedule: Q01DX009 (ip), vehicle: saline with Tween-80 92 % of control | [14] 96 % of control

Cc1cc(=O)c2cc(-c3ccccc3)ccc2[nH]1
inactive: [15] 100 % of control | [16] 92 % of control | [17] 90 % of control

CC(C)(C)NC(=O)C1C2C=CC(C2)C1C(=O)NC(C)(C)C (configuration not stated)
inactive: [6] 96 % of control | [14] 91 % of control | [7] 91 % of control

O=C(OCC1COc2ccccc2O1)C(F)(F)F (configuration not stated)
inactive: [11] 95 % of control | [12] 93 % of control | [13] 98 % of control

NC(CS)(CS)C(=O)O
inactive: dose: 15.0 mg/kg/injection, schedule: Q01DX015 (ip), vehicle: carboxymethylcellulose (CMC) 107 % of control | dose: 30.0 mg/kg/injection, schedule: Q01DX015 (ip), vehicle: carboxymethylcellulose (CMC) 113 % of control | dose: 60.0 mg/kg/injection, schedule: Q01DX015 (ip), vehicle: carboxymethylcellulose (CMC) 120 % of control

O=C1OC2CC3CC2C1C3C(=O)N1CCCCC1 (configuration not stated)
inactive: [6] 115 % of control | [15] 98 % of control | [14] 100 % of control | [16] 96 % of control | [7] 100 % of control | [17] 96 % of control

COc1ccc(C(=O)NC(=S)Nc2cccc(C)c2C)cc1
inactive: dose: 100.0 mg/kg/injection, schedule: Q01DX009 (ip), vehicle: Klucel (hydroxypropylcellulose) (HPC) 102 % of control | [8] 93 % of control | dose: 200.0 mg/kg/injection, schedule: Q01DX009 (ip), vehicle: Klucel (hydroxypropylcellulose) (HPC) 102 % of control | [9] 89 % of control | dose: 400.0 mg/kg/injection, schedule: Q01DX009 (ip), vehicle: Klucel (hydroxypropylcellulose) (HPC) 95 % of control | [10] 98 % of control

Cc1cc(C(=O)/C=C(\C(=O)c2ccccc2)c2ccccc2)ccc1Cl
inactive: dose: 12.5 mg/kg/injection, schedule: Q04DX002 (ip), vehicle: Klucel (hydroxypropylcellulose) (HPC) 98 % of control | dose: 25.0 mg/kg/injection, schedule: Q04DX002 (ip), vehicle: Klucel (hydroxypropylcellulose) (HPC) 119 % of control | [18] 94 % of control | [1] 86 % of control

CCCCCCCCC(N)C(=O)O (configuration not stated)
inactive: dose: 25.0 mg/kg/injection, schedule: Q04DX002 (ip), vehicle: gum acacia 107 % of control | [18] 91 % of control | dose: 50.0 mg/kg/injection, schedule: Q04DX002 (ip), vehicle: gum acacia 95 % of control | [1] 98 % of control | dose: 100.0 mg/kg/injection, schedule: Q04DX002 (ip), vehicle: gum acacia 114 % of control | [2] 95 % of control

COc1ccc(C2C(c3ccccc3)C=CC(c3ccccc3)C2[N+](=O)[O-])cc1OC (configuration not stated)
inactive: [11] 94 % of control | [12] 110 % of control | [13] 94 % of control

CC(CO)(CO)N=Cc1cccc([N+](=O)[O-])c1
inactive: [19] 103 % of control | [11] 103 % of control | [12] 103 % of control | [13] 97 % of control

NC(N)=N/C(N)=N/Nc1ccc([N+](=O)[O-])cc1[N+](=O)[O-]
inactive: [3] 98 % of control | [4] 93 % of control | [5] 88 % of control

CC(C)(C)C(=O)Cn1nnnc1C(=O)C(C)(C)C
inactive: dose: 50.0 mg/kg/injection, schedule: Q04DX003 (ip), vehicle: Klucel (hydroxypropylcellulose) (HPC) 105 % of control | dose: 100.0 mg/kg/injection, schedule: Q01DX001 (ip), vehicle: Klucel (hydroxypropylcellulose) (HPC) 105 % of control | [8] 103 % of control | dose: 200.0 mg/kg/injection, schedule: Q01DX001 (ip), vehicle: Klucel (hydroxypropylcellulose) (HPC) 108 % of control | [9] 100 % of control

O=[N+]([O-])c1ccccc1N=Nc1c(O)[nH]c2ccc(Br)cc12
inactive: [20] 98 % of control | [21] 101 % of control | [22] 113 % of control

C/C(=N/O)c1ccc2c(c1)/C(=N/O)c1ccccc1-2
inactive: [11] 109 % of control | [12] 94 % of control | [13] 93 % of control

[N-]=[N+]=Nc1ccc(-c2nc(N)nc(N)n2)cc1
inactive: dose: 50.0 mg/kg/injection, schedule: Q01DX009 (ip), vehicle: saline 90 % of control | [23] 90 % of control | dose: 100.0 mg/kg/injection, schedule: Q04DX003 (ip), vehicle: acetone 100 % of control | [24] 98 % of control | dose: 200.0 mg/kg/injection, schedule: Q04DX003 (ip), vehicle: acetone 97 % of control | dose: 400.0 mg/kg/injection, schedule: Q04DX003 (ip), vehicle: acetone 90 % of control

COc1ccc(-c2oc3ccccc3c(=O)c2O)cc1OC
inactive: dose: 50.0 mg/kg/injection, schedule: Q01DX001 (ip), vehicle: saline 87 % of control | [20] 98 % of control | [21] 91 % of control | [22] 93 % of control

CC1(C)c2ccccc2C(C)(C(Cl)(Cl)Cl)c2ccc(Cl)cc21 (configuration not stated)
inactive: [19] 98 % of control | [11] 90 % of control | [23] 92 % of control | [12] 93 % of control | [24] 95 % of control | [13] 95 % of control | dose: 400.0 mg/kg/injection, schedule: Q01DX009 (ip), vehicle: saline 97 % of control

CCN(CC)c1cc2c(cc1Br)-c1ccccc1C2=O
inactive: [6] 101 % of control | [14] 104 % of control | [7] 106 % of control

O=C1C(F)=C(N2CC2)C(=O)C(N2CCOCC2)=C1N1CC1
inactive: dose: 0.39 mg/kg/injection, schedule: Q04DX003 (ip), vehicle: saline 94 % of control and 108 % of control | dose: 0.75 mg/kg/injection, schedule: Q01DX009 (ip), vehicle: saline 114 % of control and 122 % of control | dose: 0.78 mg/kg/injection, schedule: Q04DX003 (ip), vehicle: saline 100 % of control | dose: 1.5 mg/kg/injection, schedule: Q01DX009 (ip), vehicle: saline 111 % of control | dose: 1.56 mg/kg/injection, schedule: Q04DX003 (ip), vehicle: saline 102 % of control and 112 % of control | dose: 3.0 mg/kg/injection, schedule: Q01DX009 (ip), vehicle: saline 110 % of control and 112 % of control | dose: 3.12 mg/kg/injection, schedule: Q01DX001 (ip), vehicle: saline 91 % of control | dose: 3.12 mg/kg/injection, schedule: Q04DX003 (ip), vehicle: saline 105 % of control and 107 % of control | dose: 6.0 mg/kg/injection, schedule: Q01DX009 (ip), vehicle: saline 111 % of control | dose: 6.25 mg/kg/injection, schedule: Q01DX001 (ip), vehicle: saline 104 % of control | dose: 6.25 mg/kg/injection, schedule: Q04DX003 (ip), vehicle: saline 105 % of control and 121 % of control | dose: 12.5 mg/kg/injection, schedule: Q01DX001 (ip), vehicle: saline 92 % of control
